Measured values from paper PMC4061482 (Frontiers in Oncology, 2014).
Like-named read-outs stand apart in the source and are kept apart here.

How the values were obtained:
[1] = test system: LNCaP cells; test: Testosterone ELISA after androstenedione stimulation; type: cell-based, human; conditions: 10 μM; 28 nM androstenedione, 24 h; P < 0.05
Method: (§1) Cells were seeded into 96-well plates in hormone-deprived media at appropriate seeding densities [10,000–50,000 cells per well for all lines except HCC1500 (100,000 cells per well; 11β-PGF2α ELISA)] to reach approximately 70% confluency at the time of sampling and were left to settle for 24 h at 37°C and 5% CO2. Inhibitors were added to the plates at single or multiple concentrations for 1 h prior to administration of equimolar (28 nM) concentrations of PGD2 (11β-PGF2α ELISA), androstenedione (testosterone ELISA), or estrone (17β-estradiol ELISA). […] Each ELISA plate was read at a wavelength of 405 nm (11β-PGF2α and testosterone) or 650 nM (17β-estradiol) on a SpectraMax M2 microplate reader (Molecular Devices) and quantitated against a standard curve generated in hormone-deprived culture media. […]
(§2) Since AKR1C3 has been implicated in the development of CRPC because of its ability to produce testosterone intratumorally from circulating androstenedione, we determined testosterone concentrations in the prostate cancer cell lines and known high and low AKR1C3-expressing cells after stimulation with androstenedione for 24 h. […]

[2] = test system: LAPC4 AKR1C3 cells; test: as above; type: cell-based; conditions: Homo sapiens, 28 nM androstenedione, 24 h, read-out: Inhibition of testosterone levels
Method: as §1, §2

[3] = test system: LAPC4 wild-type cells; test: PSA concentration after androstenedione stimulation; type: cell-based, human; conditions: 10 μM; androstenedione up to 10 nM, 24 h
Method: Cells were seeded at 20,000 cells per well (LAPC4, LAPC4 AKR1C3) or 50,000 cells per well (22RV1) into 96-well plates in hormone-deprived media and left to settle for 24 h at 37°C and 5% CO2. […] The plates were returned to the incubator for 24 h, before the cell supernatant was removed and frozen for PSA analysis. Determination of total PSA concentration was carried out at LabPLUS, Auckland City Hospital, by immunoassay on a Cobas® e601 analyzer according to manufacturer’s instructions (Roche).
Next, PSA expression was determined in the CRPC cell lines that were sensitive to SN33638-mediated inhibition of testosterone (LAPC4 AKR1C3 and 22RV1 with LAPC4 wild-type cells acting as a negative control) as a biomarker of AR activity. […] Androstenedione stimulation promoted PSA production in all three cell lines, with the highest PSA levels observed in LAPC4 AKR1C3 cells.

[4] = test system: LAPC4 wild-type cells; test: Cell proliferation (sulforhodamine B), 5 days; type: cell-based, human; conditions: 10 μM
Method: (§3) Cells were seeded into 96-well plates in hormone-deprived media at appropriate seeding densities (5000–20,000 cells per well) to reach approximately 70% confluency at the time of sampling and left to settle for 48 h at 37°C and 5% CO2. […] The plates were returned to the incubator for 5 days before fixing in 10% trichloroacetic acid (Merck Millipore) at 4°C for 1 h and staining with 0.4% sulforhodamine B (Sigma-Aldrich) in 1% acetic acid for 30 min in the dark at room temperature. Plates were washed in 1% acetic acid, dried, and incubated with unbuffered Tris base (10 mM; Serva) for 30 min on a plate shaker in the dark to solubilize the stain. The plates were read on a BioTek EL808 microplate reader at an absorbance of 490 nm with a reference wavelength of 450 nm.
(§4) Finally, we investigated whether inhibiting AKR1C3-dependent testosterone or 17β-estradiol production could prevent androstenedione- or estrone-stimulated cell proliferation in CRPC or ER-positive breast cancer cells.

[5] = test system: LAPC4 AKR1C3 cells; test: Cell proliferation (sulforhodamine B), 5 days; type: cell-based, human
Method: as §3, §4

[6] = test system: AKR1C3; design: method as in PMID 23454516; conditions: cited from earlier work
[7] = target: T1, AKR1C3 (Homo sapiens, UniProt P42330); test: 11β-PGF2α formation from PGD2 by ELISA in the cell line panel; type: cell-based; conditions: 10 μM; all cell lines that expressed AKR1C3; 28 nM PGD2, 24 h
T1 sequence (P42330 1-323): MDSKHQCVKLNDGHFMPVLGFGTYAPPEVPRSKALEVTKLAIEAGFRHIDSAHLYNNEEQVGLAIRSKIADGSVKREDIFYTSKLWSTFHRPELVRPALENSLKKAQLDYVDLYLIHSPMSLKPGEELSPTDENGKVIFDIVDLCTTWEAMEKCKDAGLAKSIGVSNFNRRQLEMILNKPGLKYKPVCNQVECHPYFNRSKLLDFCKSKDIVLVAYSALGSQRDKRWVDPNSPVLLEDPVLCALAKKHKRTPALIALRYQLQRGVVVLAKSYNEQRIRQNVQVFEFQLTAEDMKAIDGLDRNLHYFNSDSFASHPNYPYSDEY
Method: Cells were seeded into 96-well plates in hormone-deprived media at appropriate seeding densities [10,000–50,000 cells per well for all lines except HCC1500 (100,000 cells per well; 11β-PGF2α ELISA)] to reach approximately 70% confluency at the time of sampling and were left to settle for 24 h at 37°C and 5% CO2. Inhibitors were added to the plates at single or multiple concentrations for 1 h prior to administration of equimolar (28 nM) concentrations of PGD2 (11β-PGF2α ELISA), androstenedione (testosterone ELISA), or estrone (17β-estradiol ELISA). The plates were returned to the incubator for a further 24 h before cell supernatant was removed for analysis of 11β-PGF2α, testosterone, or 17β-estradiol by ELISA as per manufacturer’s instructions (11β-PGF2α and testosterone ELISA, Cayman Chemical Company; 17β-estradiol ELISA, Oxford Biomedical Research), and cells were fixed for sulforhodamine B analysis as described below. Each ELISA plate was read at a wavelength of 405 nm (11β-PGF2α and testosterone) or 650 nM (17β-estradiol) on a SpectraMax M2 microplate reader (Molecular Devices) and quantitated against a standard curve generated in hormone-deprived culture media. […]
The PGD2 11-ketoreductase activity of AKR1C3 was determined by stimulating the cell line panel with PGD2 for 24 h, then detecting 11β-PGF2α levels by ELISA.

[8] = test system: NCI-H460 cells; test: Testosterone ELISA after androstenedione stimulation; type: cell-based, human; conditions: Homo sapiens, NCI-H460; 10 μM; 28 nM androstenedione, 24 h; read-out: Inhibition of testosterone levels
Method: (§5) Cells were seeded into 96-well plates in hormone-deprived media at appropriate seeding densities [10,000–50,000 cells per well for all lines except HCC1500 (100,000 cells per well; 11β-PGF2α ELISA)] to reach approximately 70% confluency at the time of sampling and were left to settle for 24 h at 37°C and 5% CO2. Inhibitors were added to the plates at single or multiple concentrations for 1 h prior to administration of equimolar (28 nM) concentrations of PGD2 (11β-PGF2α ELISA), androstenedione (testosterone ELISA), or estrone (17β-estradiol ELISA). The plates were returned to the incubator for a further 24 h before cell supernatant was removed for analysis of 11β-PGF2α, testosterone, or 17β-estradiol by ELISA as per manufacturer’s instructions (11β-PGF2α and testosterone ELISA, Cayman Chemical Company; 17β-estradiol ELISA, Oxford Biomedical Research), and cells were fixed for sulforhodamine B analysis as described below. Each ELISA plate was read at a wavelength of 405 nm (11β-PGF2α and testosterone) or 650 nM (17β-estradiol) on a SpectraMax M2 microplate reader (Molecular Devices) and quantitated against a standard curve generated in hormone-deprived culture media. Cross-reactivity to PGD2, androstenedione, or estrone was accounted for by adding these to cell-free wells of each ELISA plate.
(§6) Since AKR1C3 has been implicated in the development of CRPC because of its ability to produce testosterone intratumorally from circulating androstenedione, we determined testosterone concentrations in the prostate cancer cell lines and known high and low AKR1C3-expressing cells after stimulation with androstenedione for 24 h.

[9] = test system: HCT116 AKR1C3 cells; test: as above; type: cell-based, human; conditions: Homo sapiens, HCT-116; for inhibition at 10 µM: read-out: Inhibition of testosterone levels
Method: as §5, §6

## CC1CCCCN1S(=O)(=O)c1ccc(N2CCCC2=O)cc1 (stereo not drawn) [SN33638]
[1]
  Effect on testosterone levels: significantly increased
[2]
  inhibition at 10 µM: 96.8%
[3]
  Effect on PSA formation: no significant effect
[4]
  Effect on androstenedione-stimulated cell proliferation: no effect
[5]; 10 μM, 1 nM androstenedione, non-significant
  Reduction in androstenedione-stimulated cell proliferation: 45.9%
[5]; Homo sapiens, LAPC4, 120 h, 0.1 nM androstenedione, read-out: Inhibition of androstenedione-stimulated cell proliferation
  inhibition at 10 µM: 101%
[6]
  Potency against AKR1C3: low nanomolar
[7]
  Reduction of 11β-PGF2α levels: ≥ 80%
[8]
  inhibition at 10 µM: 54.1%
[9]; 10 μM alone, Figure 4D
  inhibition at 10 µM: 73.7%
[9]; 10 μM, 28 nM androstenedione, 24 h, Figure 4B
  inhibition at 10 µM: 74.2%
[9]; HCT116 AKR1C3 cells, 28 nM androstenedione, 24 h, read-out: EC50 of inhibition of testosterone production
  EC50: 7.4 ± 1.2 nM
